The values below come from patent US6545007B2, “Methods for inhibiting the transmission of HIV using topically applied substituted 6-benzyl-4-oxopyrimidines” (Idenix (Cayman) Limited, priority 2000, dated 2003).

pEC50: −log10 of the molar value. Where two headings read alike, the source gives them in different places.

In one data set the test system is mock-infected MT-4 cells. Description: Cytotoxicity: viability of mock-infected cells by the MTT method. In kind it is cell-based, human. As to the method: (§1) Cells and viruses. MT-4, C8166,H9/IIIB and CEM cells were grown at 37° C. in a 5% CO2 atmosphere in RPMI 1640 medium, supplemented with 10% fetal calf serum (FCS), 100 IU/mL penicillin and 100 μg/mL streptomycin. Cell cultures were checked periodically for the absence of mycoplasma contamination with a MycoTect Kit (Gibco). Human immunodeficiency virus type-I (HIV-1, IIIB strain) was obtained from supernatants of persistently infected H9/IIIB cells.
(§2) Anti-HIV Assays. Activity of the compounds against HIV-1 and HIV-2 multiplication in acutely infected cells was based on the inhibition of virus-induced cytopathicity in MT-4 and C8166 cells, respectively. Briefly, 50 μL of culture medium containing 1×10^4 cells were added to each well of flat-bottom microtiter trays containing 50 μl of culture medium with or without various concentrations of the test compounds. Then 20 μL of an HIV suspension containing 100 CCID50 were added. After a 4-day incubation at 37° C., the number of viable cells was determined by the 3-(4,5-dimethylthiazol-[…])-2,5-diphenyltetrazolium bromide (MTT) method. Cytotoxicity of the compounds was evaluated in parallel with their antiviral activity. It was based on the viability of mock-infected cells, as monitored by the MTT method.

The next data set has as its system HIV-1 (IIIB strain). It is filed as cell-based. The conditions noted are these: for pEC50: anti-HIV-1 activity; for SI: selectivity index (CC50/EC50). As to the method: Compounds. Compounds were solubilized in DMSO at 200 mM and then diluted into culture medium.
as §1
HIV Titration. Titration of HIV was performed in C8166 cells by the standard limiting dilution method (dilution 1:2, four replica wells per dilution) in 96-well plates. The infectious virus titre was determined by light microscope scoring of cytopathicity after 4 days of incubation and the virus titres were expressed as CCID50/mL.
as §2

[1] abbreviates: acutely infected MT-4 cells, MTT.

A word on the CC50: it is the concentration that lowers cell viability or growth by half. The term pEC50 denotes −log10 of the EC50, conventionally taken in molar units. Turning to `CCC(c1cc(=O)[nH]c(SC2CCCCC2)n1)c1c(F)cccc1F` (centres unmarked) [MC 1014], the CC50 with mock-infected MT-4 cells stood at 130 µM. In the data set on HIV-1 (IIIB strain) (HIV-1-infected MT-4 cells), this molecule gave a pEC50 of 7.30. Besides, the SI with HIV-1 (IIIB strain) is recorded as 2,600.

`CN1CCN(c2nc(Cc3c(F)cccc3F)cc(=O)[nH]2)CC1` [MC 1183] registered a CC50 in the data set with mock-infected MT-4 cells (MTT) of more than 200 µM. This molecule had a pEC50 in the data set with HIV-1 (IIIB strain) (setting [1]) of 5.15.

With `Cc1c(C(C)c2c(F)cccc2F)nc(NC2CCCCC2)[nH]c1=O` (centres unmarked) [MC 1181], the CC50 with mock-infected MT-4 cells (MTT) is 58 µM. The molecule also had a pEC50 in the data set with HIV-1 (IIIB strain) (setting [1]) of 7.52.

Regarding `CCN(CC)c1nc(Cc2c(F)cccc2F)cc(=O)[nH]1` [MC 1202], in the data set on mock-infected MT-4 cells (MTT), the cytotoxic concentration (CC50) is more than 200 µM. The pEC50 in the data set on HIV-1 (IIIB strain) (setting [1]) is 6.59.

With `CNc1nc(Cc2c(F)cccc2F)c(C)c(=O)[nH]1` [MC 1168], in the data set on mock-infected MT-4 cells, the midpoint of cytotoxicity, the CC50, lay at 135 µM. In addition, in the data set with HIV-1 (IIIB strain) (HIV-1-infected MT-4 cells), the pEC50 is 6.40. The SI in the data set on HIV-1 (IIIB strain) amounted to 335.

`Cc1c(C(C)c2c(F)cccc2F)nc(SC2CCCC2)[nH]c1=O` (single isomer, unassigned) [MC 1047−]: the CC50 in the data set on mock-infected MT-4 cells (MTT) is more than 200 µM. Further, in the data set on HIV-1 (IIIB strain) (setting [1]), the pEC50 is 6.15.

In the data set on mock-infected MT-4 cells, `CCC(C)Sc1nc(Cc2c(Cl)cccc2Cl)cc(=O)[nH]1` (centres unmarked) [MC 815] came in with a half-maximal cytotoxic concentration (CC50) of more than 200 µM. Besides, the negative-log EC50 (pEC50) in the data set on HIV-1 (IIIB strain) (HIV-1-infected MT-4 cells) is 6.85. For the same molecule, the SI with HIV-1 (IIIB strain) is >1,428.

Take `CC(c1cc(=O)[nH]c(SC2CCCCC2)n1)c1cccc2ccccc12` (centres unmarked) [MC 974]: half-maximal cytotoxicity in the data set with mock-infected MT-4 cells (CC50) was put at 45 µM. The pEC50 with HIV-1 (IIIB strain) (HIV-1-infected MT-4 cells) is 6.85. For the same molecule, the SI in the data set with HIV-1 (IIIB strain) worked out at 321.4.

`CSCSc1nc(Cc2c(F)cccc2F)c(C)c(=O)[nH]1` [MC 1162, 6-(2,6-Difluorophenylmethyl)-3,4-dihydro-5-methyl-2-(methylthiomethyl)thiopyrimidin-4(3H)-one] came in with a 50% cytotoxic concentration (CC50) with mock-infected MT-4 cells (MTT) of 30 µM. This molecule gave a negative logarithm of the EC50 (pEC50) with HIV-1 (IIIB strain) (setting [1]) of 6.92.

Regarding `CCCNc1nc(Cc2c(F)cccc2F)c(C)c(=O)[nH]1` [MC 1186], in the data set with mock-infected MT-4 cells, the CC50 was more than 200 µM. This molecule also gave a pEC50 in the data set on HIV-1 (IIIB strain) (HIV-1-infected MT-4 cells) of 7.70. Also, the SI with HIV-1 (IIIB strain) is recorded as >10,000.

With `CCC(C)Sc1nc(Cc2cccc(F)c2)cc(=O)[nH]1` (centres unmarked) [MC 884], the CC50 in the data set on mock-infected MT-4 cells is more than 200 µM. Moreover, in the data set with HIV-1 (IIIB strain) (HIV-1-infected MT-4 cells), the pEC50 is 6.15. This molecule also had an SI with HIV-1 (IIIB strain) of more than 286.

Regarding `CC(c1cc(=O)[nH]c(SC2CCCCC2)n1)c1c(Cl)cccc1Cl` (centres unmarked) [MC 1016], the 50% cytotoxic concentration (CC50) in the data set on mock-infected MT-4 cells was more than 200 µM. In the data set with HIV-1 (IIIB strain) (HIV-1-infected MT-4 cells), the pEC50 was 5.54. Besides, the SI in the data set on HIV-1 (IIIB strain) is recorded as more than 69.

On to `Cc1c(Cc2c(Cl)cccc2Cl)nc(SC(C)C)[nH]c1=O` [MC 914], for which the half-maximal cytotoxic concentration (CC50) with mock-infected MT-4 cells was more than 200 µM. Further, the pEC50 in the data set on HIV-1 (IIIB strain) (HIV-1-infected MT-4 cells) was 5.89. The molecule further came in with an SI with HIV-1 (IIIB strain) of more than 154.

Regarding `Cc1c(Cc2c(F)cccc2F)nc(N(C)C)[nH]c1=O` [MC 1195], the CC50 with mock-infected MT-4 cells (MTT) was more than 200 µM. The same molecule had a pEC50 in the data set on HIV-1 (IIIB strain) (setting [1]) of 7.70.

Molecule `CCC(C)Sc1nc(Cc2cccc([N+](=O)[O-])c2)c(C)c(=O)[nH]1` (centres unmarked) [MC 925] had a CC50 in the data set with mock-infected MT-4 cells of more than 200 µM. In addition, the negative logarithm of the EC50 (pEC50) with HIV-1 (IIIB strain) (HIV-1-infected MT-4 cells) is 6.46. This molecule showed an SI in the data set with HIV-1 (IIIB strain) of more than 571.

`Cc1ccccc1Cc1cc(=O)[nH]c(SC2CCCC2)n1` [MC 842] gave a half-maximal cytotoxic concentration (CC50) in the data set on mock-infected MT-4 cells of more than 200 µM. In the data set on HIV-1 (IIIB strain) (HIV-1-infected MT-4 cells), this molecule gave a pEC50 of 5.47. This molecule also returned an SI in the data set on HIV-1 (IIIB strain) of more than 59.

Consider `CSc1nc(Cc2c(F)cccc2F)cc(=O)[nH]1` [MC 871], for which the CC50 in the data set with mock-infected MT-4 cells stood at 200 µM. For the same molecule, in the data set with HIV-1 (IIIB strain) (HIV-1-infected MT-4 cells), the pEC50 was 6.09. The molecule further gave an SI with HIV-1 (IIIB strain) of 247.

`O=c1cc(Cc2c(F)cccc2F)nc(SC2CCCC2)[nH]1` [MC 867] displayed a CC50 in the data set with mock-infected MT-4 cells of more than 200 µM. In the data set on HIV-1 (IIIB strain) (HIV-1-infected MT-4 cells), this molecule gave a negative logarithm of the EC50 (pEC50) of 7.10. For the same molecule, the SI in the data set on HIV-1 (IIIB strain) is on record as >2,500.

`CNc1nc(Cc2c(F)cccc2F)cc(=O)[nH]1` [MC 1167] yielded a CC50 in the data set with mock-infected MT-4 cells of more than 200 µM. This molecule had a pEC50 in the data set on HIV-1 (IIIB strain) (HIV-1-infected MT-4 cells) of 5.82. Besides, the SI in the data set on HIV-1 (IIIB strain) is reported as more than 133.

`CCCc1c(Cc2ccccc2)nc(SC(C)CC)[nH]c1=O` (centres unmarked) [MC 856] gave a CC50 with mock-infected MT-4 cells of 190 µM. In the data set with HIV-1 (IIIB strain) (HIV-1-infected MT-4 cells), this molecule had a pEC50 of 4.92. This molecule registered an SI with HIV-1 (IIIB strain) of 16.

In the data set on mock-infected MT-4 cells, `CCc1c(Cc2ccccc2)nc(SC(C)CC)[nH]c1=O` (centres unmarked) [MC 798] registered a cytotoxic concentration (CC50) of more than 200 µM. The molecule also showed a negative logarithm of the EC50 (pEC50) in the data set with HIV-1 (IIIB strain) (HIV-1-infected MT-4 cells) of 6.00. The SI with HIV-1 (IIIB strain) is more than 200.

For `Cc1c(Cc2c(F)cccc2F)nc(NC(C)C)[nH]c1=O` [MC 1118], the midpoint of cytotoxicity in the data set on mock-infected MT-4 cells, the CC50, lay at 190 µM. The same molecule showed a pEC50 in the data set with HIV-1 (IIIB strain) (HIV-1-infected MT-4 cells) of 7.52. In the data set on HIV-1 (IIIB strain), the SI is given as 6,333.

Regarding `CCC(c1ccccc1)c1cc(=O)[nH]c(SC2CCCCC2)n1` (centres unmarked) [MC 903], the cytotoxic concentration (CC50) with mock-infected MT-4 cells is more than 200 µM. In the data set on HIV-1 (IIIB strain) (HIV-1-infected MT-4 cells), this molecule showed a pEC50 of 5.89. In addition, the SI with HIV-1 (IIIB strain) is listed as more than 154.

Consider `Cc1c(C(C)c2c(F)cccc2F)nc(SC2CCCCC2)[nH]c1=O` (centres unmarked) [MC 1174], for which the 50% cytotoxic concentration (CC50) in the data set on mock-infected MT-4 cells (MTT) is more than 200 µM. In the data set with HIV-1 (IIIB strain) (setting [1]), this molecule gave a negative-log EC50 (pEC50) of 7.74.
